# Laboratory results as given in patent US12168055B2, “Sonosensitization” (priority 2019, dated 2024).
# Read-outs that look alike come from different tables or passages of the source.
# Tests used:
# [1] = tested on: mammary tumors; details: porfimer sodium 2.5 mg/kg or higher i.v. 24 h before ultrasound 1.92 MHz, 15 min, 3 W/cm^2 or higher; cited from earlier work
# [2] = tested on: human THP-1 monocytes (induced to become macrophages and foam cells); details: berberine 30 μg/mL, ultrasound 1.0 MHz, 0.4 W/cm^2, 10 min; cited from earlier work
# [3] = tested on: C6 glioma tumor cells
# Method: Male Wistar rats received injections of 4×10^5 C6 glioma tumor cells by injection into the right cortex of the brain. On day 7 after injection, rats were administered 5-aminolevulinic acid (20 mg/kg or 0 mg/kg, Levulan®, DUSA Pharmaceuticals, Wilmington, MA) orally, three hours prior to treatment.
# Rats were anesthetized and set inside an MRI-guided focused ultrasound system (“FUS”, RK300, FUS Instruments, Toronto, Canada), having a 25 mm diameter spherically curved transducer (resonant frequency f0=1.06 MHz, focal number=0.8). The FUS, with rat, was then inserted into a 7 Telsa MRI system (Brucker BioSpec 70/30 USR, Bruker Ltd., Milton, Ontario, Canada). The MRI was used to precisely aim the FUS device at the brain tumor. Rats were then sonicated at one of four spatial peak temporal average intensities (ISPTA) (6.9 W/cm^2, 13.8 W/cm^2, 27.6 W/cm^2, or 55.2 W/cm^2) for 20 minutes. One group (N=6) was cyclicly sonicated at 27.6 W/cm^2 for 20 minutes, divided into 16 sonication periods of 85 seconds, separated by rest periods of 60 seconds (the multiple point, or “MP” group). In the MP group, 16 individual points within the tumor were sonicated. Control groups (N=5 each) received 5-ALA without FUS treatment, FUS treatment without 5-ALA, or neither 5-ALA nor FUS. Tumor temperature was monitored during sonication using magnetic resonance thermometry. Normalized tumor volume was measured by MRI on days 7, 14, 21, 28, and 35 following injection.
# [4] = tested on: SAS cells; details: cited from earlier work; for cell viability: about 2 W/cm^2, 2 min
# [5] = tested on: U87 and U251 glioma cells, and U251^Oct-3/4 glioma stem-like cells; details: 5-ALA 1 mM + ultrasound 3 MHz, 2 W/cm^2, 20% duty cycle, 3 min; cited from earlier work
# [6] = tested on: normal control cells; details: 5-ALA 1 mM + ultrasound 3 MHz, 2 W/cm^2, 20% duty cycle, 3 min; cited from earlier work
# [7] = tested on: human U87 glioma cells or U251^Oct-3/4 glioma stem-like cells; details: 5-ALA 100 mg/kg + ultrasound 2.2 MHz, 0.5 or 2.0 W/cm^2, 3 min, weekly for 3 weeks; cited from earlier work
# [8] = tested on: C6 rat glioma cells; details: 5-ALA 100 mg/kg orally 3 h before ultrasound 1.04 MHz, 10 W/cm^2, 5 min; vs 5-ALA or ultrasound alone; cited from earlier work
# [9] = tested on: C6 glioma cells; details: 5-ALA 60 mg/kg or Radachlorin 40 mg/kg + ultrasound 1.0 MHz, 2.65 W/cm^2, 20 min; vs control groups; cited from earlier work
# [10] = tested on: rat osteosarcoma UMR-106 cells; details: 5-ALA 250 mg/kg i.v. 8 h before ultrasound 1.0 MHz, 2.5 W/cm^2, 8 min daily for 10 days; vs all other groups; cited from earlier work
# [11] = tested on: normal brain tissue; details: cited from earlier work
compound,measurement,setting,value
porfimer sodium,tumor growth,[1],effectively inhibited tumor growth
COc1ccc2cc3[n+](cc2c1OC)CCc1cc2c(cc1-3)OCO2 [berberine],autophagy in macrophages,[2],induced autophagy in macrophages
same,cholesterol efflux,[2],increased cholesterol efflux
"NCC(=O)CCC(=O)O [5-ALA, 5-aminolevulinic acid]","survival, multiple point (MP) group","[3]; 5-ALA 20 mg/kg + FUS 27.6 W/cm^2, 16 points, 16 periods of 85 s with 60 s rest",greatest increase in survival
same,survival,"[3]; 5-ALA 20 mg/kg orally 3 h before FUS (1.06 MHz, 20 min), all experimental groups",improved survival
same,tumor growth,"[3]; 5-ALA 20 mg/kg orally 3 h before FUS (1.06 MHz, 20 min), all experimental groups vs control animals",inhibited tumor growth
same,tissue damage,"[3]; 5-ALA 20 mg/kg, sonication at 55.2 W/cm^2",suffered tissue damage
same,normalized tumor volume,"[3]; 5-ALA only group (20 mg/kg orally), no FUS",24+6 mm^3
same,subjects surviving past 60 days,[3]; MP group: 5-ALA 20 mg/kg + FUS 27.6 W/cm^2 at 16 points,50%
same,"SAS cell apoptosis, intracellular reactive oxygen species, and lipid peroxidation","[4]; 10 μg/mL 5-ALA added to ultrasound, vs ultrasound alone",significantly increased these effects
same,cell viability,[4]; 5-ALA 1 μg/mL 4 h before ultrasound 1.05 MHz,88%
same,cell viability,[4]; 5-ALA 10 μg/mL 4 h before ultrasound 1.05 MHz,75%
same,cell viability,[4]; 5-ALA 50 μg/mL 4 h before ultrasound 1.05 MHz,62%
same,cytotoxicity to tumor cells,[5],substantially cytotoxic to all tumor cells tested
same,cytotoxicity to normal control cells,[6],not to normal control cells
same,survival of treated mice,[7],significantly improved the survival
same,tumor size,[8],significantly smaller tumors
same,tumor size,[9],significantly smaller in size
same,tumor volumes,[10],significantly smaller than all other groups
O=C([O-])c1c(Cl)c(Cl)c(Cl)c(Cl)c1-c1c2cc(I)c(=O)c(I)c-2oc2c(I)c([O-])c(I)cc12.[Na+].[Na+] [Rose Bengal],rats displaying lesions,"[11]; Rose Bengal 10 mg/kg, ultrasound 110 W/cm^2, 3 min",5/5
same,rats displaying lesions,"[11]; Rose Bengal 10 mg/kg, ultrasound 110 W/cm^2, 5 min",6/7
same,rats displaying lesions,"[11]; Rose Bengal 50 mg/kg, ultrasound 110 W/cm^2, 3 min",5/5
same,rats displaying lesions,"[11]; Rose Bengal 50 mg/kg, ultrasound 110 W/cm^2, 5 min",6/6
same,lesions in normal brain tissue,"[11]; ultrasound 25 W/cm^2, with or without Rose Bengal",no lesions
